Values after ≈ are worked out from the molar mass of the structure shown.
Tests used:
[1] = test system: MGAT3; assay: MGAT3 transcription ratio, AD patient / control PBMCs (qPCR); format: cell-based, human; parameters: key: Dash (−) indicates minimal effect; (+) indicates a ratio of 1.0-1.5; (++) indicates a ratio of 1.5-2.0; (+++ to ++++) indicates a ratio of 2.0 and above; (+++ to ++++) indicates a ratio of 2.0 and above; settings: Aβ stimulation
Experimental: (§1) qPCR reactions of cultured monocyte cDNAs. One μL total cellular cDNA per reaction is used in triplicate reactions for each test gene, and for each culture treatment. SYBR-Green reactions were run on a Continuous Fluorescence real-time thermocycler and analyzed. Cycle threshold (Ct) values are recorded for each replicate reaction, and are then averaged and normalized against mean Ct values from one or more control genes. Fold-expression differences relative to untreated cells are determined using the 2^−ΔΔCt method as previously described. Data from the curcumin concentration range are plotted in order to determine EC50 values (concentrations producing one-half maximal stimulant activity), which are used for comparisons of potency between different compounds. Data are also evaluated for each gene with regard to sensitivity, maximally effective concentration of curcuminoid, response to Aβ, and overall magnitude of fold-expression changes.
(§2) MGAT3 and/or TLR transcription were tested by qPCR in human monocyte cells treated with curcuminoids and compared the results to those treated with vehicle (Table 7). As discussed above, activation or up-regulation of macrophage MGAT3 or TLR's results in many functional outcomes, including the enhancement of […] and removal of Aβ, increased apoptosis, secretion of inflammatory cytokines, and other anti-AD antimicrobial activities. […] Thus, the ratio of MGAT3 or TLR transcription upon Aβ stimulation of human monocytes versus vehicle treatment provides an indicator and sensitive method to test the in vitro efficacy of drug candidates. […] The relative biological activity of the curcumin analogs in AD patient and control cells was ascertained in the in vitro Aβ assay described above (see Example 2).

[2] = Metabolic stability in human S9 fraction; format: in vitro ADME; settings: read-out: Half life, t1/2 S9
[3] = Metabolic stability in human liver microsomes; format: in vitro ADME; settings: read-out: Half life, t1/2 HLM
[4] = Chemical stability (H2O, pH 7.4); format: physicochemical
[5] = Anti-oxidant activity
[6] = test system: TLR 4; assay: TLR 4 transcription ratio, AD patient / control PBMCs (qPCR); format: cell-based, human; settings: Aβ stimulation
Experimental: as §1, §2

[7] = test system: TLR 2; assay: TLR 2 transcription ratio, AD patient / control PBMCs (qPCR); format: cell-based, human; settings: Aβ stimulation
Experimental: as §1, §2

[8] = test system: TLR 3; assay: TLR 3 transcription ratio, AD patient / control PBMCs (qPCR); format: cell-based, human; settings: Aβ stimulation
Experimental: as §1, §2

[9] = Average solubility; format: physicochemical
[10] = water (aqueous solution), pH 7.4, read-out: Chemical stability t1/2 pH 7.4 (converted)
[11] = water, H2O, read-out: Chemical stability t1/2 H2O (converted)

Compound | Relative ratio of MGAT3 transcription in AD patient / control PBMC's [1] | half-life [2] [min] | half-life ([3]; human) [min] | IC50 [5] [µM] | also measured
CSc1ccc(/C=C/C(=O)/C=C(O)/C=C/c2ccc(SC)cc2)cc1 [Compound 29, 1,7-bis(4-Methylthiophenyl)-5-hydroxyhepta-1,4,6-trien-3-one] | ++++ ((+++ to ++++) indicates a ratio of 2.0 and above) | 75.4 | 97.1 |  | 
COc1cc(O)ccc1/C=C/C(=O)/C=C(O)/C=C/c1ccc(O)cc1OC [Compound 22, 5-Hydroxy-1,7-bis-(4-hydroxy-2-methoxyphenyl)-hepta-1,4,6-trien-3-one] | ++ ((++) indicates a ratio of 1.5-2.0) | 2.4 | 31.5 |  | 
NCCCCC(N)C(=O)Oc1ccc(/C=C/C(=O)C2CCC/C(=C\c3ccc(OC(=O)C(N)CCCCN)cc3)C2=O)cc1 (centres unmarked) [Compound 38] | + ((+) indicates a ratio of 1.0-1.5) | 33.6 |  | > 250 | Chemical stability H2O (stable/unstable) ([4]; H2O): unstable (stability half-lives less than 5 minutes); Chemical stability pH 7.4 (stable/unstable) ([4]; pH 7.4): unstable (stability half-lives less than 5 minutes); half-life ([3]; value given in h): > 60 min
O=C(/C=C(O)/C=C/c1cccc(O)c1)/C=C/c1cccc(O)c1 [Compound 19, 5-Hydroxy-1,7-bis-(3-hydroxyphenyl)-hepta-1,4,6-trien-3-one] | + ((+) indicates a ratio of 1.0-1.5) | 6.6 | 13.3 |  | half-life [4, 10]: 66.2 min; half-life [4, 11]: 22.8 min
Cc1ccc(/C=C/C(=O)/C=C(O)/C=C/c2ccc(C)cc2)cc1 [Compound 28, 5-Hydroxy-1,7-ditolylhepta-1,4,6-trien-3-one] | ++ ((++) indicates a ratio of 1.5-2.0) |  |  |  | 
COc1ccc(F)cc1/C=C/C(O)=C/C(=O)/C=C/c1ccc(N(C)C)cc1 [Compound 31] | ++ ((++) indicates a ratio of 1.5-2.0) |  |  |  | Relative ratio of TLR 4 transcription in AD patient / control PBMC's [6]: TLR 4 ++ ((++) indicates a ratio of 1.5-2.0); Relative ratio of TLR 2 transcription in AD patient / control PBMC's [7]: TLR 2 ++ ((++) indicates a ratio of 1.5-2.0); Relative ratio of TLR 3 transcription in AD patient / control PBMC's [8]: TLR 3 ++ ((++) indicates a ratio of 1.5-2.0)
COc1ccccc1/C=C/C(=O)/C=C(O)/C=C/c1ccccc1OC [Compound 25, 5-Hydroxy-1,7-bis-(2-methoxyphenyl)-hepta-1,4,6-trien-3-one] | ++++ ((+++ to ++++) indicates a ratio of 2.0 and above) | 10.9 | 72.8 |  | Relative ratio of TLR 4 transcription in AD patient / control PBMC's [6]: TLR 4 + ((+) indicates a ratio of 1.0-1.5); Relative ratio of TLR 2 transcription in AD patient / control PBMC's [7]: TLR 2 +++ ((+++ to ++++) indicates a ratio of 2.0 and above); Relative ratio of TLR 3 transcription in AD patient / control PBMC's [8]: TLR 3 ++ ((++) indicates a ratio of 1.5-2.0)
O=C(/C=C(O)/C=C/c1ccc(O)c(Cl)c1)/C=C/c1ccc(O)c(Cl)c1 [Compound 24, 1,7-bis-(3-Chloro-4-hydroxyphenyl)-5-Hydroxy-hepta-1,4,6-trien-3-one] | − |  |  |  | 
CN(C)c1ccc(/C=C/C(=O)/C=C(O)/C=C/c2ccc(N(C)C)cc2)cc1 [Compound 20, 1,7-bis-(4-Dimethylaminophenyl)-5-hydroxy-hepta-1,4,6-trien-3-one] | ++++ ((+++ to ++++) indicates a ratio of 2.0 and above) | 22.7 | 41.5 |  | solubility [9]: 0.23 µg/mL (≈ 0.635 µM); Chemical stability H2O (stable/unstable) ([4]; H2O): stable (stability half-lives greater than 5 hours); Chemical stability pH 7.4 (stable/unstable) ([4]; pH 7.4): stable (stability half-lives greater than 5 hours)
O=C1C(=Cc2ccc(O)cc2)COCC1=Cc1ccc(O)cc1 [Compound 15, 3,5-bis(4-Hydroxybenzylidene)dihydro-2H-pyran-4(3H)-one] |  |  |  | > 250 | 
CC(C)(C)C(=O)Oc1ccc(/C=C/C(=O)/C=C(O)/C=C/c2ccc(OC(=O)C(C)(C)C)cc2)cc1 [Compound 18, 2,2-Dimethyl-propionic acid 4-{7-[4-(2,2-dimethyl-propionyloxy)-phenyl]-3,5-dioxo-hepta-1,6-dienyl}-phenyl ester] | − |  |  |  | 
CC/C(C(=O)/C=C/c1ccc(N(C)C)cc1OC)=C(O)\C=C\c1ccc(N(C)C)cc1OC [Compound 13, 1,7-Bis(4-(dimethylamino)-2-methoxyphenyl)-4-ethyl-hepta-1,6-diene-3,5-dione] |  |  |  | 67.4 | 
O=C(/C=C(O)/C=C/c1ccccc1)/C=C/c1ccccc1 [Compound 27, 5-Hydroxy-1,7-diphenylhepta-1,4,6-trien-3-one] | + ((+) indicates a ratio of 1.0-1.5) |  |  |  | 
O=C1/C(=C(O)/C=C/c2ccc(O)cc2)CCC/C1=C\c1ccc(O)cc1 [Compound 6, 2-(4-Hydroxybenzylidene)-6-(3-(4-hydroxyphenyl)acryloyl)cyclohexanone] | +++ ((+++ to ++++) indicates a ratio of 2.0 and above) | 35.2 | 60.6 | > 250 | half-life [4, 10]: 436 min; half-life [4, 11]: 244 min
NCCCCC(N)C(=O)Oc1ccc(/C=C/C(=O)/C=C(O)/C=C/c2ccc(OC(=O)C(N)CCCCN)cc2)cc1 (centres unmarked) [Compound 34, 4,4′-(3,5-Dioxohepta-1,6-diene-1,7-diyl)bis(4,1-phenylene) bis(2,6-diaminohexanoate)] | ++ ((++) indicates a ratio of 1.5-2.0) | 4.5 | 19.9 | > 250 | Relative ratio of TLR 4 transcription in AD patient / control PBMC's [6]: TLR 4 + ((+) indicates a ratio of 1.0-1.5); Chemical stability pH 7.4 (stable/unstable) ([4]; pH 7.4): unstable^b (stability half-lives less than 5 minutes); half-life [4, 11]: 10.2 min; Relative ratio of TLR 2 transcription in AD patient / control PBMC's [7]: TLR 2 +++ ((+++ to ++++) indicates a ratio of 2.0 and above); Relative ratio of TLR 3 transcription in AD patient / control PBMC's [8]: TLR 3 ++ ((++) indicates a ratio of 1.5-2.0)
CC(C)C(N)C(=O)Oc1ccc(/C=C/C(=O)C2CCC/C(=C\c3ccc(OC(=O)C(N)C(C)C)cc3)C2=O)cc1 (centres unmarked) [Compound 37] | ++ ((++) indicates a ratio of 1.5-2.0) | 33.2 |  | > 250 | half-life [4, 10]: < 16 min; half-life [4, 11]: 95.9 min; half-life ([3]; value given in h): > 60 min
CC(C)(C)c1ccc(/C=C/C(=O)/C=C(O)/C=C/c2ccc(C(C)(C)C)cc2)cc1 [Compound 30, 1,7-bis(4-tert-Butylphenyl)-5-hydroxyhepta-1,4,6-trien-3-one] | + ((+) indicates a ratio of 1.0-1.5) |  |  | > 250 | Relative ratio of TLR 4 transcription in AD patient / control PBMC's [6]: TLR 4 + ((+) indicates a ratio of 1.0-1.5); Relative ratio of TLR 2 transcription in AD patient / control PBMC's [7]: TLR 2 + ((+) indicates a ratio of 1.0-1.5); Relative ratio of TLR 3 transcription in AD patient / control PBMC's [8]: TLR 3 ++ ((++) indicates a ratio of 1.5-2.0)
COc1ccc(F)cc1/C=C/C(O)=C1\CCC/C(=C\c2cc(F)ccc2OC)C1=O [Compound 11] | + ((+) indicates a ratio of 1.0-1.5) |  |  | > 250 | 
CC(=O)Oc1ccc(/C=C/C(=O)/C=C(O)/C=C/c2ccc(OC(C)=O)cc2)cc1 [Compound 17, Acetic acid 4-[7-(4-acetoxy-phenyl)-5-hydroxy-3-oxo-hepta-1,4,6-trienyl]-phenyl ester] | − |  |  |  | 
COc1ccc(/C=C/C(=O)/C=C(O)/C=C/c2ccc(OC)c(O)c2)cc1O [Compound 21, 5-Hydroxy-1,7-bis-(3-hydroxy-4-methoxyphenyl)-hepta-1,4,6-trien-3-one] | + ((+) indicates a ratio of 1.0-1.5) | 6.6 | 5 |  | 
CC/C(C(=O)/C=C/c1ccc(N(C)C)cc1)=C(O)\C=C\c1ccc(N(C)C)cc1 [Compound 9, 1,7-bis(4-Dimethylaminophenyl)-4-ethyl-hepta-1,6-diene-3,5-dione] |  |  |  | 55.3 | 
COc1ccc(/C=C/C(=O)/C=C(O)/C=C/c2ccc(OC)cc2)cc1 [Compound 16, 5-Hydroxy-1,7-bis-(4-methoxy-phenyl)-hepta-1,4,6-trien-3-one] | − | 10.9 | 9 |  | 
O=C(/C=C(\O)CCc1ccc(O)cc1)CCc1ccc(O)cc1 [Compound 5, 5-Hydroxy-1,7-bis(4-hydroxyphenyl)hept-4-en-3-one] |  |  |  | > 250 | Avg. Solubility [9]: insol
